We go through one compound from patent US20220288075A1, “METHOD AND COMPOSITION FOR TREATING PAIN” (ACADEMIA SINICA, priority 2019, published 2022).

The subject of assay [1] is LPC16:0. Briefly: Serum LPC16:0 level in RISS mice at P0 by mass spectrometry. The note with it: darapladib 10 mg/kg i.p. once daily, P0, triple quadrupole MS, vs vehicle; FIG. 3N. It is filed as in vivo. As to the method:
Antioxidants: Systemic administration of NAC (200 mg/kg bodyweight, i.p.; Sigma-Aldrich) with Tempol (100 mg/kg bodyweight, i.p.; Sigma-Aldrich) or vehicle (phosphate buffered saline; PBS) was given 30 min before and after each RISS procedure at days 1, 3 and 4 (FIG. 3M)^48-50. A total of 6 doses of drug were given during the RISS protocol. Sensory testing was performed 1 hour after the last drug injection at P0 and at P4 and P7. PAF-AH inhibitors. Darapladib (Cayman, Ann Arbor, Mich.) was solubilized in DMSO: PBS containing 1% methyl-β-cyclodextrin (1:99) and given once daily by i.p. injection at 10 mg/kg body weight. Mice were randomly assigned to receive vehicle or darapladib for 5 consecutive days during RISS (FIG. 3M). […] Triple quadrupole mass spectrometry (QqQ MS) for absolute quantitative analysis of target lipids. Targeted analysis of LPC16:0, LPC18:0 and SM(d18:1/18:0) was measured by using an Agilent-1200 liquid chromatography system coupled to an Agilent-6410 QqQ MS with an ESI interface. […] Lipidomic profiling for relative quantitative analysis. Lipids were identified by comparing the LC/MS profiles of the metabolites of interest to that of a standard compound analyzed with identical conditions, and their relative abundance among samples was further evaluated. […] Collected data were processed with Progenesis QI (Waters) for lipid identification and relative quantitative analysis.

Assay [2] has as its system RISS mice. In words: RISS (repeated and intermittent sound stress) model, sensory testing (von Frey, muscle withdrawal threshold, Hargreaves). It is filed as in vivo. The note with it: darapladib 10 mg/kg i.p. once daily throughout the RISS procedure, vs vehicle; FIG. 3N. From the text:
Sound stressors were applied as described^14, 43 with modification. Mice were placed (3 per cage) in a 20×30×15 cm bedding cage, which was kept 25 cm below a speaker, inside a 40×50×35 cm sound-insulated box. A speaker emitted pure tones at 5 frequencies (5, 11, 13, 15 and 19 kHz) with random amplitudes varied over time for each frequency (0, 20, 60, 90, and 100 dB sound). Each tone stimulus lasted for 5 or 10 sec in random order, and mice were stimulated continuously without interval. The sound stressors continued for 30 min as a set. In the original SS (sound stress) protocol, a set of 30-min stimuli was given once a day on days 1, 3, and 4 (FIG. 1A)^14. The RISS model intensified the stress protocol by increasing the stimulus frequency: a set of sound stimulus was repeated every 3 hours for 6 times overnight (from 16:00 to 10:00), followed by resting silence for 6 hours (from 10:00 to 16:00). The procedure was repeated on days 1, 3, and 4 as for the SS protocol. The control groups were placed in similar chambers for 4 days without stress exposure. Both groups of mice had access to food and water freely during the stress period. After the stimulus procedure, mice were returned to their original home cages in the animal care facility. In both the SS and RISS protocols, the day after completing the stress stimuli is called P0; the post-stress day 1, P1; and so on. In the experimental design of the […] single-day stimuli of intermittent SS (SISS), the day after SISS is called P′0; the post-stress day 1, P′1; and so on.
Animals were placed on an elevated mesh platform, and a 0.2-mN von Frey filament was applied to the plantar surface of both hind paws. A positive response was defined as lifting, shaking, guarding, or licking paws when the stimulus was applied. For each paw, the filament was applied 5 times at 30-sec intervals.
Mice were placed individually in Acrylic cubicles mounted on a glass surface maintained at 30° C. The test was performed after acclimatization. The thermal stimulus of the radiant heat was then applied to the plantar surface of each hind paw. Each mouse was tested in three sequential trials with an interval of 2-3 min. The assay cutoff was set at 30 sec to prevent tissue damage. Paw withdrawal latencies were calculated as the mean of three measures.
Muscle withdrawal thresholds were evaluated as described^46. […]
Analgesic drugs: Pregabalin (0.3, 1, 3 or 10 mg/kg bodyweight, i.p.; Toronto Research Chemicals), morphine (0.3, 1, 3 or 10 mg/kg bodyweight, i.p.), diclofenac (1, 3 or 10 mg/kg bodyweight, i.p.; Sigma-Aldrich) or vehicle (0.9% saline) was administered, and the effect of each drug was evaluated by testing 6 mice. […]

As to `CCN(CC)CCN(Cc1ccc(-c2ccc(C(F)(F)F)cc2)cc1)C(=O)Cn1c(SCc2ccc(F)cc2)nc(=O)c2c1CCC2` [darapladib, N-[2-(diethylamino)ethyl]-2-{2-[(4-fluorobenzyl)sulfanyl]-4-oxo-4,5,6,7-tetrahydro-1H-cyclopenta[d]pyrimidin-1-yl}-N-{[4′-(trifluoromethyl)biphenyl-4-yl]methyl}acetamide], in assay [1], the “LPC16:0 production after RISS (serum level)” value was “significantly reduced”. Further, the “development of RISS-induced chronic hypersensitivity (von Frey test)” value in assay [2] is “prevented the development of chronic hypersensitivity”.
